In the data set the test system is MM1.S lenalidomide-resistant cells. The experiment in a line: Cell viability (EZ-Cytox) of lenalidomide-resistant multiple myeloma cells. The class given is cell-based. As to conditions: 42 hours culture + 3 hours EZ-Cytox, absorbance 450 nm. On the procedure: The MM1.S cell line (American Type Culture Collection, ATCC from USA) was incubated in RPMI1640 medium containing 10% FBS and 1% penicillin/streptomycin at 37° C. under 5% CO2. The Lenalidomide-resistant MM1.S cell line was established by gradually adding […] lenalidomide (Sigma-Aldrich, Cat No. D2438) from 5 μM to 200 μM to the cell line culture.
In order to evaluate cytotoxic effects of the 30Kcα-CRBN recombinant fusion protein, 1×104 MM1.S lenalidomide-resistant cells were seeded in each well of a 96 well plate. 200 μM of lenalidomide and/or 3 μM of 30Kcα-CRBN recombinant fusion protein were added to each well according to the experimental group. The total medium volume of each well was adjusted to 100 μL. Then, each medium was cultured for 42 hours, and 10 μl of EZ-Cytox (Cat. No. EZ-3000 from Dogen) was added to each well, followed by incubation for 3 hours. Thereafter, absorbance was measured at 450 nm using a microplate reader (Clarostar™ from BMGlabtech), and a cell viability (%) was calculated by using the measured absorbance and shown in FIG. 2.

As for `Nc1cccc2c1CN(C1CCC(=O)NC1=O)C2=O` (centres unmarked) [lenalidomide], the cell viability entry (lenalidomide 200 μM alone, without 30Kcα-CRBN fusion protein, FIG. 2A) is on record as “could not be reduced”.

B1: 30Kcα-CRBN recombinant fusion protein: Fusion recombinant protein of 30Kc19 α-helix domain (30Kc19α, SEQ ID NO: 1) linked N-terminally to human cereblon (SEQ ID NO: 2) (protein)
chain: ADSDVPNDILEEQLYNSVVVADYDSAVEKSKHLYEEKKSEVITNVVNKLIRNNKMNCMEYAYQLWLQGSKDIVRDCFPVEFRLIFAENMAGEGDQQDAAHNMGNHLPLLPAESEEEDEMEVEDQDSKEAKKPNIINFDTSLPTSHTYLGADMEEFHGRTLHDDDSCQVIPVLPQVMMILIPGQTLPLQLFHPQEVSMVRNLIQKDRTFAVLAYSNVQEREAQFGTTAEIYAYREEQDFGIEIVKVKAIGRQRFKVLELRTQSDGIQQAKVQILPECVLPSTMSAVQLESLNKCQIFPSKPVSREDQCSYKWWQKYQKRKFHCANLTSWPRWLYSLYDAETLMDRIKKQLREWDENLKDDSLPSNPIDFSYRVAACLPIDDVLRIQLLKIGSAIQRLRCELDIMNKCTSLCCKQCQETEITTKNEIFSLSLCGPMAAYVNPHGYVHETLTVYKACNLNLIGRPSTEHSWFPGYAWTVAQCKICASHIGWKFTATKKDMSPQKFWGLTRSALLPTIPDTEDEISPDKVILCL
modifications: 30Kc alpha-CRBN
Regarding B1, for the setting “3 μM 30Kcα-CRBN fusion protein in combination with 200 μM lenalidomide, FIG. 2B”, the “reduction of cell viability compared with the control” value is ~50%.

The values above are taken from US11358992B2, “Cell-penetrating cereblon recombinant fusion protein and use thereof” (UPPTHERA, priority 2020, dated 2022).
